According to patent US20260015358A1, “BICYCLIC DERIVATIVES, COMPOSITIONS AND USES THEREOF” (Danatlas Pharmaceuticals Co., Ltd., priority 2023, published 2026):

Tests used:
[1] = molecular target: T1, WRN [UniPro: Q14191 (WRN_HUMAN), N500-C946] (Homo sapiens (Human), UniProt Q14191); test: WRN unwinding assay (FORKF DNA, fluorescence); type: biochemical; details: Table 14
[2] = molecular target: T1, WRN [UniPro: Q14191 (WRN_HUMAN), N500-C946]; test: WRN ATPase assay (ADP-Glo); type: biochemical; details: WRN enzymatic activity assay

T1 sequence (Q14191 500-946): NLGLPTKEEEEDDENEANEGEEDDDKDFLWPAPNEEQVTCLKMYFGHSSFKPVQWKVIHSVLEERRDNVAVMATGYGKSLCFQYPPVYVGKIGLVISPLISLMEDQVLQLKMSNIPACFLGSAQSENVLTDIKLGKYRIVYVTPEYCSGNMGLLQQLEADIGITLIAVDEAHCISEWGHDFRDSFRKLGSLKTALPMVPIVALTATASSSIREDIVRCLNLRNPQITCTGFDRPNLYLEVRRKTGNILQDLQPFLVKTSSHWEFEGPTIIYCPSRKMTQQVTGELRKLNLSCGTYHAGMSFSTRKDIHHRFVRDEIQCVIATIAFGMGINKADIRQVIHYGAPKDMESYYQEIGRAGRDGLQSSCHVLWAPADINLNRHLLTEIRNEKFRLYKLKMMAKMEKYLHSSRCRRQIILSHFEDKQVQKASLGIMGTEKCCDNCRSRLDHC

| Compound | IC50 [1] [nM] | IC50 [2] [nM] |
| --- | --- | --- |
| CCc1c(N2CCN(C(=O)CNC(=O)c3ccccc3F)CC2)c(=O)n2nc(N3CCOCC3)nc2n1CC(=O)Nc1ccc(C(F)(F)F)cc1F [Example 254, N-(2-(4-(5-Ethyl-4-(2-((2-fluoro-4-(trifluoromethyl)phenyl)amino)-2-oxoethyl)-2-morpholino-7-oxo-4,7-dihydro-[1,2,4]triazolo[1,5-a]pyrimidin-6-yl)piperazin-1-yl)-2-oxoethyl)-2-fluorobenzamide] | < 100 | < 100 |
| CCc1c(N2CCN(C(=O)CNC(=O)c3cc(NC)ccc3F)CC2)c(=O)n2nc(C3=CCOCC3)nc2n1CC(=O)Nc1ccc(C(F)(F)F)cc1F [Example 215, N-(2-(4-(2-(3,6-dihydro-2H-pyran-4-yl)-5-ethyl-4-(2-((2-fluoro-4-(trifluoromethyl)phenyl)amino)-2-oxoethyl)-7-oxo-4,7-dihydro-[1,2,4]triazolo[1,5-a]pyrimidin-6-yl)piperazin-1-yl)-2-oxoethyl)-2-fluoro-5-(methylamino)benzamide] | < 100 | < 100 |
| CCc1c(N2CCN(C(=O)CNC(=O)C3CC3)CC2)c(=O)n2nc(C3=CCOCC3)nc2n1CC(=O)Nc1ccc(C(F)(F)F)cc1Cl [Example 165, N-(2-(4-(4-(2-((2-Chloro-4-(trifluoromethyl)phenyl)amino)-2-oxoethyl)-2-(3,6-dihydro-2H-pyran-4-yl)-5-ethyl-7-oxo-4,7-dihydro-[1,2,4]triazolo[1,5-a]pyrimidin-6-yl)piperazin-1-yl)-2-oxoethyl)cyclopropanecarboxamide] | < 100 | < 100 |
| CCc1c(N2CCN(C(=O)c3cccc(=O)[nH]3)CC2)c(=O)n2nc(C3=CCOCC3)nc2n1CC(=O)Nc1ccc(C(F)(F)F)cc1Cl [Example 78, N-(2-Chloro-4-(trifluoromethyl)phenyl)-2-(2-(3,6-dihydro-2H-pyran-4-yl)-5-ethyl-7-oxo-6-(4-(6-oxo-1,6-dihydropyridine-2-carbonyl)piperazin-1-yl)-[1,2,4]triazolo[1,5-a]pyrimidin-4(7H)-yl)acetamide] | < 100 | < 100 |
| CCc1c(N2CCN(C(=O)C(=O)N3CCOCC3)CC2)c(=O)n2nc(C3=CCOCC3)nc2n1CC(=O)Nc1ccc(C(F)(F)F)cc1Cl [Example 356, N-(2-Chloro-4-(trifluoromethyl)phenyl)-2-(2-(3,6-dihydro-2H-pyran-4-yl)-5-ethyl-6-(4-(2-morpholino-2-oxoacetyl)piperazin-1-yl)-7-oxo-[1,2,4]triazolo[1,5-a]pyrimidin-4(7H)-yl)acetamide] | > 1000 | > 1000 |
| CCc1c(N2CCN(c3noc4cccnc34)CC2)c(=O)n2nc(C3=CCOCC3)nc2n1CC(=O)Nc1ccc(C(F)(F)F)cc1Cl [Example 23, N-(2-Chloro-4-(trifluoromethyl)phenyl)-2-(2-(3,6-dihydro-2H-pyran-4-yl)-5-ethyl-6-(4-(isoxazolo[4,5-b]pyridin-3-yl)piperazin-1-yl)-7-oxo-[1,2,4]triazolo[1,5-a]pyrimidin-4 (7H)-yl)acetamide] | > 1000 | > 1000 |
| CCc1c(N2CCN(C(=O)C(=O)Nc3ncco3)CC2)c(=O)n2nc(C3=CCOCC3)nc2n1CC(=O)Nc1ccc(C(F)(F)F)cc1F [Example 228, 2-(4-(2-(3,6-Dihydro-2H-pyran-4-yl)-5-ethyl-4-(2-((2-fluoro-4-(trifluoromethyl)phenyl)amino)-2-oxoethyl)-7-oxo-4,7-dihydro-[1,2,4]triazolo[1,5-a]pyrimidin-6-yl)piperazin-1-yl)-N-(oxazol-2-yl)-2-oxoacetamide] | < 100 | < 100 |
| CCc1c(N2CCN(S(=O)(=O)CC)CC2)c(=O)n2nc(C3=CCOCC3)nc2n1CC(=O)Nc1ccc(C(F)(F)F)cc1Cl [Example 11, N-(2-Chloro-4-(trifluoromethyl)phenyl)-2-(2-(3,6-dihydro-2H-pyran-4-yl)-5-ethyl-6-(4-(ethylsulfonyl)piperazin-1-yl)-7-oxo-[1,2,4]triazolo[1,5-a]pyrimidin-4(7H)-yl)acetamide] | > 1000 | 100 to 1000 |
| CCOC(=O)NCC(=O)N1CCN(c2c(CC)n(CC(=O)Nc3ccc(C(F)(F)F)cc3Cl)c3nc(C4=CCOCC4)nn3c2=O)CC1 [Example 167, Ethyl (2-(4-(4-(2-((2-chloro-4-(trifluoromethyl)phenyl)amino)-2-oxoethyl)-2-(3,6-dihydro-2H-pyran-4-yl)-5-ethyl-7-oxo-4,7-dihydro-[1,2,4]triazolo[1,5-a]pyrimidin-6-yl)piperazin-1-yl)-2-oxoethyl)carbamate] | < 100 | < 100 |
| CCc1c(N2CCN(C(=O)CN(C)C(C)=O)CC2)c(=O)n2nc(C3=CCOCC3)nc2n1CC(=O)Nc1ccc(C(F)(F)F)cc1Cl [Example 323, 2-(6-(4-(N-Acetyl-N-methylglycyl)piperazin-1-yl)-2-(3,6-dihydro-2H-pyran-4-yl)-5-ethyl-7-oxo-[1,2,4]triazolo[1,5-a]pyrimidin-4(7H)-yl)-N-(2-chloro-4-(trifluoromethyl)phenyl)acetamide] | 100 to 1000 | 100 to 1000 |
| CCc1c(N2CCN(C(=O)CNC(=O)c3c[nH]cn3)CC2)c(=O)n2nc(C3=CCOCC3)nc2n1CC(=O)Nc1ccc(C(F)(F)F)cc1Cl [Example 121, N-(2-(4-(4-(2-((2-Chloro-4-(trifluoromethyl)phenyl)amino)-2-oxoethyl)-2-(3,6-dihydro-2H-pyran-4-yl)-5-ethyl-7-oxo-4,7-dihydro-[1,2,4]triazolo[1,5-a]pyrimidin-6-yl)piperazin-1-yl)-2-oxoethyl)-1H-imidazole-4-carboxamide] | < 100 | < 100 |
| CCc1c(N2CCN(C(=O)CNC(=O)c3nc(C)co3)CC2)c(=O)n2nc(C3=CCOCC3)nc2n1CC(=O)Nc1ccc(C(F)(F)F)cc1Cl [Example 301, N-(2-(4-(4-(2-((2-Chloro-4-(trifluoromethyl)phenyl)amino)-2-oxoethyl)-2-(3,6-dihydro-2H-pyran-4-yl)-5-ethyl-7-oxo-4,7-dihydro-[1,2,4]triazolo[1,5-a]pyrimidin-6-yl)piperazin-1-yl)-2-oxoethyl)-4-methyloxazole-2-carboxamide] | 100 to 1000 | 100 to 1000 |
| CCc1c(N2CCN(C(=O)c3cnc(C(F)(F)F)[nH]3)CC2)c(=O)n2nc(C3=CCOCC3)nc2n1CC(=O)Nc1ccc(Cl)cc1C(F)(F)F [Example 70, N-(4-Chloro-2-(trifluoromethyl)phenyl)-2-(2-(3,6-dihydro-2H-pyran-4-yl)-5-ethyl-7-oxo-6-(4-(2-(trifluoromethyl)-1H-imidazole-5-carbonyl)piperazin-1-yl)-[1,2,4]triazolo[1,5-a]pyrimidin-4(7H)-yl)acetamide] | 100 to 1000 | 100 to 1000 |
| CCc1c(N2CCN(C(=O)C(=O)NCC(F)(F)F)CC2)c(=O)n2nc(C3=CCOCC3)nc2n1CC(=O)Nc1ccc(C(F)(F)F)cc1Cl [Example 360, 2-(4-(4-(2-((2-Chloro-4-(trifluoromethyl)phenyl)amino)-2-oxoethyl)-2-(3,6-dihydro-2H-pyran-4-yl)-5-ethyl-7-oxo-4,7-dihydro-[1,2,4]triazolo[1,5-a]pyrimidin-6-yl)piperazin-1-yl)-2-oxo-N-(2,2,2-trifluoroethyl)acetamide] | > 1000 | > 1000 |
| CCc1c(N2CCN(C(=O)c3cnc4[nH]ccc4c3O)CC2)c(=O)n2nc(C3=CCOCC3)nc2n1CC(=O)Nc1ccc(C(F)(F)F)cc1Cl [Example 42, N-(2-Chloro-4-(trifluoromethyl)phenyl)-2-(2-(3,6-dihydro-2H-pyran-4-yl)-5-ethyl-6-(4-(4-hydroxy-1H-pyrrolo[2,3-b]pyridine-5-carbonyl)piperazin-1-yl)-7-oxo-[1,2,4]triazolo[1,5-a]pyrimidin-4(7H)-yl)acetamide] | < 100 | < 100 |
| CCc1c(N2CCN(C(=O)CNC(=O)c3ncco3)CC2)c(=O)n2nc(C3=CCOCC3)nc2n1CC(=O)Nc1ccc(C(F)(F)F)cc1Cl [Example 123, N-(2-(4-(4-(2-((2-Chloro-4-(trifluoromethyl)phenyl)amino)-2-oxoethyl)-2-(3,6-dihydro-2H-pyran-4-yl)-5-ethyl-7-oxo-4,7-dihydro-[1,2,4]triazolo[1,5-a]pyrimidin-6-yl)piperazin-1-yl)-2-oxoethyl)oxazole-2-carboxamide] | < 100 | < 100 |
| CCc1c(N2CCN(C(=O)c3n[nH]c(=O)[nH]c3=O)CC2)c(=O)n2nc(C3=CCOCC3)nc2n1CC(=O)Nc1ccc(C(F)(F)F)cc1Cl [Example 22, N-(2-Chloro-4-(trifluoromethyl)phenyl)-2-(2-(3,6-dihydro-2H-pyran-4-yl)-6-(4-(3,5-dioxo-2,3,4,5-tetrahydro-1,2,4-triazine-6-carbonyl)piperazin-1-yl)-5-ethyl-7-oxo-[1,2,4]triazolo[1,5-a]pyrimidin-4(7H)-yl)acetamide] | < 100 | < 100 |
| CCc1c(N2CCN(C(=O)c3ncc4ccn(C)c4c3O)CC2)c(=O)n2nc(C3=CCOCC3)nc2n1CC(=O)Nc1ccc(C(F)(F)F)cc1Cl [Example 203, N-(2-Chloro-4-(trifluoromethyl)phenyl)-2-(2-(3,6-dihydro-2H-pyran-4-yl)-5-ethyl-6-(4-(7-hydroxy-1-methyl-1H-pyrrolo[3,2-c]pyridine-6-carbonyl)piperazin-1-yl)-7-oxo-[1,2,4]triazolo[1,5-a]pyrimidin-4(7H)-yl)acetamide] | < 100 | < 100 |
| CCc1c(N2CCN(C(=O)CNC(=O)c3nc(NC)ccc3F)CC2)c(=O)n2nc(C3=CCOCC3)nc2n1CC(=O)Nc1ccc(C(F)(F)F)cc1Cl [Example 361, N-(2-(4-(4-(2-((2-Chloro-4-(trifluoromethyl)phenyl)amino)-2-oxoethyl)-2-(3,6-dihydro-2H-pyran-4-yl)-5-ethyl-7-oxo-4,7-dihydro-[1,2,4]triazolo[1,5-a]pyrimidin-6-yl)piperazin-1-yl)-2-oxoethyl)-3-fluoro-6-(methylamino) picolinamide] | < 100 | < 100 |
